Marks after values point to notes of the source that are not given here.
Experiments:
[1] = tested on: S. aureus; experiment: MIC by standard broth microdilution; format: cell-based
Description: (§1) Approved Standard M7-A3. Methods for dilution antimicrobial susceptibility tests for bacteria that grow aerobically—Third edition. National Committee for Clinical Laboratory Standards, Villanova, Pa.; National Committee for Clinical Laboratory Standards, 1992. Tentative Guideline M26-T. Methods for determining bactericidal activity of antimicrobial agents. National Committee for Clinical Laboratory Standards, Villanova, Pa.].

[2] = tested on: S. aureus; experiment: MBC by standard broth microdilution (kills 99.9% of inoculum in 24 h); format: cell-based
Description: as §1

[3] = tested on: Staphylococcus epidermidis; experiment: MIC against Staphylococcus epidermidis clinical isolates; format: cell-based; details: 11 of 13 clinical isolates of S. epidermidis tested
Description: as §1

[4] = tested on: S. aureus Smith; experiment: Acute S. aureus infection model in mice (survival); format: in vivo
Method: The efficacy of lysostaphin was compared to that of vancomycin in an acute infection model in mice. S. aureus Smith was cultured overnight, with moderate agitation, in Veal Infusion broth (Difco) and diluted in broth containing 5% hog gastric mucin (Difco). Male Swiss-Webster mice (Taconic Farms, Germantown, N.Y.) weighing approximately 20 grams were infected intraperitoneally with 10^5-10^6 viable cells, approximately tenfold the inoculum that reproducibly killed all untreated animals within 48 h. There were six mice in each treatment group. Lysostaphin was administered intravenously (in 0.1 ml 5% dextrose for injection) or subcutaneously (in 0.2 ml), within 10 min of infection. Vancomycin was administered subcutaneously.

[5] = tested on: S. aureus; experiment: MIC by broth macrodilution in glass tubes; format: cell-based
Method: In this experiment, MICs were determined by broth macrodilution in 1 ml final volumes in glass tubes. Otherwise, the methodology was as described above.

[6] = tested on: methicillin-resistant VISA strain of S. aureus; experiment: Experimental endocarditis in rabbits, methicillin-resistant VISA strain; format: in vivo
Method: Aortic valve endocarditis was established in New Zealand white rabbits weighing approximately 3 kg. Rabbits were anesthetized and the right carotid artery surgically exposed and cannulated with a polyethylene catheter which was advanced into the left ventricle of the heart. After at least 24 h, the rabbits were infected intravenously with 10^6-10^7 cells of a methicillin-resistant S. aureus strain (MRSA 27619). Twenty-four hours later, the animals were randomly assigned to different treatment groups; untreated control (9 rabbits); positive control, vancomycin 30 mg/kg twice daily (15); lysostaphin 5 mg/kg three times daily (11); lysostaphin 5 mg/kg once daily (10); lysostaphin 5 mg/kg once daily+vancomycin 30 mg/kg twice daily (11). Any rabbits whose infection was not confirmed by pre-treatment blood culture were eliminated.
All treatments were intravenous and were carried out for three days. The state of health of the rabbits was assessed at intervals. The rabbits were sacrificed 18 h after the last treatment. Aortic vegetations were removed and weighed and processed to determine the number of viable bacteria, expressed as log,10CFU/gram. The limit of detection is 10^2 CFU/gram (log10CFU/gram=2.0). The mean titers of bacteria per gram were compared by one-way analysis of variance. The Student-Newman-Keuls test was used to adjust for multiple comparisons.
Strains that are both methicillin-resistant and resistant to vancomycin are a newly emerging problem. A variant strain of this type was selected after cycles of growth in glycopeptide-containing medium. The vancomycin MIC for the resulting strain was 8 μg/ml, as reported also for naturally occurring VISA strains isolated from patients in the U.S. and Japan. (Centers for Disease Control and Prevention, Morbidity and Mortality Weekly Report 1997; 46:813-815). Staphylococcal isolates are considered to be susceptible to vancomycin if the MIC is less than or equal to 4 μg/ml and to be completely resistant if the MIC is greater than or equal to 32 μg/ml (National Committee for Clinical Laboratory Standards, 1993. Approved Standard M2-A5. Performance standards for antimicrobial disk susceptibility tests—Fifth edition. National Committee for Clinical Laboratory Standards, Villanova, Pa.)

[7] = tested on: S. aureus strain AG461; details: strain AG461 (methicillin-resistant clinical isolate)
Description: The different concentrations of lysostaphin and vancomycin used were one and eight times their respective MIC.

[8] = intraperitoneal infection, cited from earlier work
[9] = at least 50 mg/kg/treatment; cited from earlier work
[10] = single parenteral dose, followed by gentamicin three days later; the patient died; cited from earlier work
[11] = clinical isolates of S. aureus (summary of Table 1a)
[12] = strain 404 (clinical isolate, methicillin-resistant)
[13] = strain 450M (clinical isolate, methicillin-resistant)
[14] = strain 1573 (clinical isolate, methicillin-resistant)
[15] = strain 27222 (clinical isolate, methicillin-resistant)
[16] = strain 27286 (clinical isolate, methicillin-resistant)
[17] = strain 27287 (clinical isolate, methicillin-resistant)
[18] = strain 27295 (clinical isolate, methicillin-resistant)
[19] = strain 27619 (clinical isolate, methicillin-resistant)
[20] = strain 27619VR (laboratory-derived, intermediate susceptibility to vancomycin)
[21] = strain 27621 (clinical isolate, methicillin-resistant)
[22] = strain 27622 (clinical isolate, methicillin-resistant)
[23] = strain 27698 (clinical isolate, methicillin-resistant)
[24] = strain 29293 (clinical isolate, methicillin-resistant)
[25] = strain COL (clinical isolate, methicillin-resistant)
[26] = strain HP5827 (clinical isolate, methicillin-resistant, VISA)
[27] = strain HP5836 (clinical isolate, methicillin-resistant, VISA)
[28] = lysostaphin intravenously vs vancomycin

## lysostaphin: recombinant lysostaphin enzyme from fermentation of B. sphaericus; majority component lacks the two N-terminal amino acids of the published sequence
[1]; [11]
  minimal inhibitory concentrations (MIC): ≤ 1.0 µg/mL
[1]; strain 401 (clinical isolate)
  MIC Without BSA: 0.5 µg/mL
[1]; strain 402 (clinical isolate)
  MIC: 0.5 µg/mL
[1]; [12]
  MIC: 0.5 µg/mL
  MIC Without BSA: 0.5 µg/mL
[1]; strain 412
  MIC: 0.25 µg/mL
[1]; strain 414
  MIC: 0.25 µg/mL
  MIC Without BSA: 0.25 µg/mL
[1]; [13]
  MIC: 0.25 µg/mL
[1]; [14]
  MIC: 0.5 µg/mL
[1]; [15]
  MIC: 0.25 µg/mL
[1]; [16]
  MIC: 0.25 µg/mL
[1]; [17]
  MIC: 0.25 µg/mL
  MIC Without BSA: 0.25 µg/mL
[1]; [18]
  MIC: 0.13 µg/mL
  MIC Without BSA: 0.13 µg/mL
[1]; [19]
  MIC: 0.25 µg/mL
  MIC Without BSA: 0.25 µg/mL
[1]; [20]
  MIC: 0.5 µg/mL
[1]; [21]
  MIC: 0.06 µg/mL
[1]; [22]
  MIC: 0.06 µg/mL
[1]; [23]
  MIC: 0.25 µg/mL
[1]; [24]
  MIC: 0.06 µg/mL
[1]; [25]
  MIC: 0.13 µg/mL
[1]; [26]
  MIC: 0.5 µg/mL
[1]; [27]
  MIC: 0.5 µg/mL
[2]; [11]
  minimal bactericidal concentrations (MBC): ≤ 1.0 µg/mL
[2]; strain 402 (clinical isolate)
  MBC: 0.5 µg/mL
[2]; [12]
  MBC: 0.5 µg/mL
[2]; strain 412
  MBC: 0.25 µg/mL
[2]; strain 414
  MBC: 0.25 µg/mL
[2]; [13]
  MBC: 0.5 µg/mL
[2]; [14]
  MBC: 1 µg/mL
[2]; [15]
  MBC: 0.25 µg/mL
[2]; [16]
  MBC: 0.5 µg/mL
[2]; [17]
  MBC: 0.25 µg/mL
[2]; [18]
  MBC: 0.25 µg/mL
[2]; [19]
  MBC: 0.5 µg/mL
[2]; [20]
  MBC: 0.5 µg/mL
[2]; [21]
  MBC: 0.25 µg/mL
[2]; [22]
  MBC: 0.25 µg/mL
[2]; [23]
  MBC: 0.5 µg/mL
[2]; [24]
  MBC: 0.25 µg/mL
[2]; [25]
  MBC: 0.25 µg/mL
[2]; [26]
  MBC: 0.5 µg/mL
[2]; [27]
  MBC: 1 µg/mL
[3]
  MIC: ≤ 8 µg/mL
[4]; 0.08 mg/kg iv within 10 min of infection
  % survival: 33%
[4]; 0.16 mg/kg iv within 10 min of infection
  % survival: 100%
[4]; 0.31 mg/kg iv within 10 min of infection
  % survival: 100%
[4]; 0.63 mg/kg iv within 10 min of infection
  % survival: 100%
[4]; 1.25 mg/kg sc
  % survival: 67%
[4]; 2.5 mg/kg sc
  % survival: 100%
[4]; 5 mg/kg sc
  % survival: 100%
[4]; 10 mg/kg sc
  % survival: 100%
[4]; 20 mg/kg sc
  % survival: 100%
[4]; Table 4 experiment, dose 0.04 mg/kg
  % survival: 0%
[4]; Table 4 experiment, dose 0.08 mg/kg
  % survival: 17%
[4]; Table 4 experiment, dose 0.16 mg/kg
  % survival: 83%
[4]; [28]
  effectiveness relative to vancomycin, on a molar basis: about 200 times
  effectiveness relative to vancomycin, on a weight basis: 16 times
[5]; strain AG402 (clinical isolate)
  MIC: .008 µg/mL
[5]; strain AG404 (clinical isolate, methicillin-resistant)
  MIC: .008 µg/mL
[5]; strain AG414
  MIC: .004 µg/mL
[5]; strain AG417
  MIC: .004 µg/mL
[6]; 5 mg/kg three times daily
  CFU/g vegetation (expressed as log10 of the mean): 6.29 log10 CFU/g
  sterile/total vegetations: 2/10
[6]; 15 mg/kg twice daily
  CFU/g vegetation (expressed as log10 of the mean): 4.0** log10 CFU/g
  sterile/total vegetations: 0/5
[7]
  MIC (lower time-kill concentration stated to be one times MIC): 0.004 µg/mL
[8]; single or multiple subcutaneous administrations, total approximately 1 mg/kg
  survival of treated mice: 50%
[8]; total dosage of 6 mg/kg
  mice protected: 100%
[9]
  effectiveness (health of the dogs, reduction of bacteria in heart valves and kidneys): only moderately effective
[10]
  outcome in one very ill human patient: reduction in bacteremia

Reference: patent publication US20020006406A1, “METHOD FOR THE TREATMENT OF STAPHYLOCOCCAL DISEASE” (priority 1997, published 2002)
